Measurements published in PubChem BioAssay AID330 (DTP/NCI, 2004).
Where “and” joins values, the source holds several entries; their conditions need not be identical. Equal values may be shown once. Inconclusive results and toxic doses are left out. Rule for the calls: active = survival T/C of 150% or more; inactive = T/C below 125% in these data.

Test system: P388 leukemia ip, CD2F1 mice, survival T/C
Experiment: NCI In Vivo Anticancer Drug Screen. Data for tumor model P388 Leukemia (intraperitoneal) in CD2F1 (CDF1) mice
Conditions: endpoint: median survival time, higher = longer survival
Summary of the method: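 Mice carrying the transplanted tumor received test compound or vehicle. Survival was recorded in each group, and the value is the treated-group measurement divided by that of the vehicle-treated control group.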

[1] = dose: 50.0 mg/kg/injection, schedule: Q01DX005 (ip), vehicle: Klucel (hydroxypropylcellulose) (HPC)
[2] = dose: 100.0 mg/kg/injection, schedule: Q01DX005 (ip), vehicle: Klucel (hydroxypropylcellulose) (HPC)
[3] = dose: 200.0 mg/kg/injection, schedule: Q01DX005 (ip), vehicle: Klucel (hydroxypropylcellulose) (HPC)
[4] = dose: 1.56 mg/kg/injection, schedule: Q01DX009 (ip), vehicle: saline
[5] = dose: 60.0 mg/kg/injection, schedule: Q01DX005 (ip), vehicle: saline with Tween-80
[6] = dose: 120.0 mg/kg/injection, schedule: Q01DX005 (ip), vehicle: saline with Tween-80
[7] = dose: 240.0 mg/kg/injection, schedule: Q01DX005 (ip), vehicle: saline with Tween-80
[8] = dose: 50.0 mg/kg/injection, schedule: Q01DX009 (ip), vehicle: saline with Tween-80
[9] = dose: 100.0 mg/kg/injection, schedule: Q01DX009 (ip), vehicle: saline with Tween-80
[10] = dose: 200.0 mg/kg/injection, schedule: Q01DX009 (ip), vehicle: saline with Tween-80
[11] = dose: 50.0 mg/kg/injection, schedule: Q01DX009 (ip), vehicle: Klucel (hydroxypropylcellulose) (HPC)
[12] = dose: 100.0 mg/kg/injection, schedule: Q01DX009 (ip), vehicle: Klucel (hydroxypropylcellulose) (HPC)
[13] = dose: 200.0 mg/kg/injection, schedule: Q01DX009 (ip), vehicle: Klucel (hydroxypropylcellulose) (HPC)
[14] = dose: 25.0 mg/kg/injection, schedule: Q01DX009 (ip), vehicle: water

Measured: T/C

N#Cc1c(C(F)(F)F)cc(-c2cccs2)nc1SC(C(=O)Nc1cc(C(F)(F)F)cc(C(F)(F)F)c1)c1ccccc1 (stereo not given)
inactive: [1] 106 % of control | [2] 88 % of control | [3] 90 % of control

OCC1CC2C=CC1O2 (stereo not given)
inactive: dose: 50.0 mg/kg/injection, schedule: Q01DX005 (ip), vehicle: saline with Tween-80 101 % of control | dose: 100.0 mg/kg/injection, schedule: Q01DX005 (ip), vehicle: saline with Tween-80 114 % of control | dose: 200.0 mg/kg/injection, schedule: Q01DX005 (ip), vehicle: saline with Tween-80 95 % of control

Cc1cc2ccccc2cc1N
inactive: dose: 50.0 mg/kg/injection, schedule: Q01DX009 (ip), vehicle: saline 106 % of control | dose: 100.0 mg/kg/injection, schedule: Q01DX009 (ip), vehicle: saline 100 % of control | dose: 200.0 mg/kg/injection, schedule: Q01DX009 (ip), vehicle: saline 97 % of control

CCCCCCCOc1cccc(OCCCC[N+]2(CC)CCCCC2)c1
inactive: [4] 97 % of control | dose: 3.12 mg/kg/injection, schedule: Q01DX009 (ip), vehicle: saline 100 % of control | dose: 6.25 mg/kg/injection, schedule: Q01DX009 (ip), vehicle: saline 100 % of control

Cc1noc(C)c1C(=O)CCCCC(=O)O
inactive: [5] 102 % of control | [6] 95 % of control | [7] 104 % of control

Cc1cc(C(F)(F)F)nc(NNc2nc(C)cc(C(F)(F)F)n2)n1
inactive: [8] 102 % of control | [9] 88 % of control | [10] 88 % of control

CC1(C)OCC(C2OC3OC(C)(C)OC3C2OP(=O)(N2CC2)N2CC2)O1 (stereo not given)
inactive: [8] 112 % of control | [9] 105 % of control

C=C(C)C(=O)OCCOc1ccc(/C=N/N=c2/sc3ccccc3n2C)cc1OC
inactive: [11] 105 % of control | [12] 97 % of control | [13] 108 % of control

S=C1SCCCN1c1ccccc1
inactive: dose: 100.0 mg/kg/injection, schedule: Q04DX003 (ip), vehicle: Klucel (hydroxypropylcellulose) (HPC) 100 % of control | dose: 200.0 mg/kg/injection, schedule: Q04DX003 (ip), vehicle: Klucel (hydroxypropylcellulose) (HPC) 110 % of control

Nc1nc(Cl)c(N=Nc2ccccc2)c(=O)[nH]1
inactive: dose: 7.5 mg/kg/injection, schedule: Q01DX005 (ip), vehicle: saline with Tween-80 111 % of control | dose: 15.0 mg/kg/injection, schedule: Q01DX005 (ip), vehicle: saline with Tween-80 105 % of control | dose: 30.0 mg/kg/injection, schedule: Q01DX005 (ip), vehicle: saline with Tween-80 99 % of control and 108 % of control | [5] 101 % of control and 109 % of control

CN1C(=O)C2CC(O)C(SC3CC4C(=O)N(C)C(=O)C4CC3O)CC2C1=O (stereo not given)
inactive: [14] 98 % of control | dose: 50.0 mg/kg/injection, schedule: Q01DX009 (ip), vehicle: water 100 % of control | dose: 100.0 mg/kg/injection, schedule: Q01DX009 (ip), vehicle: water 98 % of control | dose: 200.0 mg/kg/injection, schedule: Q01DX009 (ip), vehicle: water 98 % of control

C=CC(=NC(C)C)NC(C)C
inactive: [4] 100 % of control | dose: 3.13 mg/kg/injection, schedule: Q01DX009 (ip), vehicle: saline 101 % of control

O=C1C2OC2C(O)(CCN(Cc2ccc3c(c2)OCO3)C(=O)C(F)(F)F)C2OC12 (stereo not given)
inactive: dose: 6.25 mg/kg/injection, schedule: Q01DX001 (ip), vehicle: saline 104 % of control | dose: 12.5 mg/kg/injection, schedule: Q01DX001 (ip), vehicle: saline 105 % of control | dose: 25.0 mg/kg/injection, schedule: Q01DX001 (ip), vehicle: saline 106 % of control

O=C1CSC=NN1c1ccccc1
inactive: [5] 102 % of control | [6] 92 % of control | [7] 108 % of control

CCCCCCCCCCCCCCCC(=O)N(CCCN)C(C)(C)CCC(C)(C)N(CCCN)C(=O)CCCCCCCCCCCCCCC
inactive: dose: 1.56 mg/kg/injection, schedule: Q01DX009 (ip), vehicle: water 101 % of control | dose: 3.13 mg/kg/injection, schedule: Q01DX009 (ip), vehicle: water 107 % of control | dose: 6.25 mg/kg/injection, schedule: Q01DX009 (ip), vehicle: water 114 % of control | dose: 12.5 mg/kg/injection, schedule: Q01DX009 (ip), vehicle: water 113 % of control | [14] 93 % of control

COC(=O)C(=O)C(C(=O)c1cccc2ccccc12)c1nc2n(c1O)C(=N)N=N2 (stereo not given)
inactive: [5] 109 % of control | [6] 104 % of control | [7] 100 % of control

CC1CC(c2ccccc2)C(c2ccc(Cl)cc2)C(=O)O1 (stereo not given)
inactive: [11] 96 % of control | [12] 100 % of control | [13] 100 % of control

CCOC(=O)Nc1cc(Cl)ccc1O
inactive: dose: 100.0 mg/kg/injection, schedule: Q04DX003 (ip), vehicle: saline with Tween-80 90 % of control | dose: 200.0 mg/kg/injection, schedule: Q04DX003 (ip), vehicle: saline with Tween-80 90 % of control | dose: 400.0 mg/kg/injection, schedule: Q04DX003 (ip), vehicle: saline with Tween-80 90 % of control

Cc1ccc(Nc2cccc3c2C(=O)c2cccc(Nc4ccc(C)cc4S(=O)(=O)O)c2C3=O)c(S(=O)(=O)O)c1
inactive: [8] 108 % of control | [9] 100 % of control | [10] 101 % of control

O=C(Oc1ccc[nH]c1=O)C1CCC1
inactive: [1] 102 % of control and 92 % of control | [2] 102 % of control and 90 % of control | [3] 100 % of control and 91 % of control | dose: 400.0 mg/kg/injection, schedule: Q01DX005 (ip), vehicle: Klucel (hydroxypropylcellulose) (HPC) 100 % of control and 103 % of control

O=C(/C(O)=C/c1ccccc1)c1ccccc1
inactive: dose: 100.0 mg/kg/injection, schedule: Q04DX002 (ip), vehicle: saline with Tween-80 93 % of control | dose: 200.0 mg/kg/injection, schedule: Q04DX002 (ip), vehicle: saline with Tween-80 92 % of control | dose: 400.0 mg/kg/injection, schedule: Q04DX002 (ip), vehicle: saline with Tween-80 92 % of control
